Measured values from patent publication US20250164396A1, “METHOD FOR VISUALIZING DENATURED STATE OR AGGREGATED STATE OF PROTEIN” (TOHOKU UNIVERSITY, priority 2022, published 2025).

Assays:
[1] = molecular target: T1, bovine carbonic anhydrase (CAII) (Bos taurus, UniProt P00921); experiment: Detection of heat-denatured CAII in HEK293FT cell disruption solution by two-dimensional electrophoresis, with or without ligand; assay type: binding
T1 construct: purchased Aldrich C3934
Method: Thereafter, centrifugation was performed at 14,000×g for 10 minutes, and the supernatant was collected. […] The PCR tube was heated in a thermal cycler (Applied Biosystems, Mini Amp Plus) at 65° C. for 5 minutes and then allowed to stand at room temperature. The subsequent protocol to prepare two-dimensional electrophoresis samples was performed in the following two ways.
(Protocol to collect all proteins) A sample was prepared according to the protocol of the ReadyPrep 2-D cleanup kit (Bio-Rad), and the final pellets obtained were dissolved in 15 μL of swelling buffer (containing ampolyte, pH: 3-10) included with the Auto2D Glycine Type Reagent Kit.
(Protocol to collect pellets) The heated sample was centrifuged (at 20,000×g for 20 minutes), the supernatant was discarded, and the remaining pellets were dissolved in 15 μL of swelling buffer (containing ampolyte, pH: 3-10) included with the Auto2D Glycine Type Reagent Kit.
Two-dimensional electrophoresis was performed according to the long-term protocol of Auto 2D Plus (Merck), and fluorescence images of the resulting gel were obtained using a fluorescence imager (Vilver Lourmat, Fusion Solo S). […] The ONBD compound used was iPrONBD described above.

α-Synuclein fibril = molecular target: T2, α-Synuclein fibril (Homo sapiens, UniProt P37840); experiment: Quantification of aggregated state of α-synuclein fibril by probe fluorescence; settings: 500 nM fibril, 37° C.; FIG. 3
T2 construct: purchased Cosmo Bio Co., Ltd. SYN03
Method: α-Synuclein fibril (Cosmo Bio Co., Ltd., SYN03) was diluted with 10 mM MES buffer (pH: 7.4) to prepare a 500 nM solution. The solution was dispensed in 50 μL portions in a 96-well half well black plate (Greiner, 675086). […] The fluorescence (using filters for Ex: […]) was measured in a plate reader (Teccan, Infinite 200 Pro F PLEX) under constant temperature conditions at 37° C. with plate shaking at 1 second per minute. The ONBD compounds used were three types: iPrONBD and octylONBD described above, as well as PEGONBD shown below.

[2] = molecular target: T3, Bovine carbonic anhydrase (Bos taurus, UniProt P00921); experiment: Fluorescence response of ONBD probes to heat denaturation of carbonic anhydrase; settings: 1 mM ONBD compound; heated from 25° C. by 5° C. every 180 seconds; FIG. 1
T3 construct: purchased Aldrich C3934
T3 sequence (P00921 whole entry): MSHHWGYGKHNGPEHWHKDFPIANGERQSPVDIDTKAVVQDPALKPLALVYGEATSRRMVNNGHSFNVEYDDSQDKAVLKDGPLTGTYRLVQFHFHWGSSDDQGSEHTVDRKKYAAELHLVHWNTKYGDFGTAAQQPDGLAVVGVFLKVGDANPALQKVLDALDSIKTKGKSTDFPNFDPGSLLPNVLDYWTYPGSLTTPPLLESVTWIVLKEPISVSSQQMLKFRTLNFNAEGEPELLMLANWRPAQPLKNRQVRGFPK
Method: The PCR tube was heated with a protocol to increase the temperature by 5° C. every 180 seconds from 25° C. using a real-time PCR system (Takara Bio Inc., Thermal Cycler Dice, TP800). The fluorescence (FAM mode for ONBD compounds) was measured at the last 15 seconds of each step. Sypro Orange (Invitrogen S6650, 5000× concentration in DMSO) of the comparison target was added to a final concentration of 10×, the same operation was carried out, and the fluorescence was measured in ROX mode. The ONBD compounds used were the following five types: MeONBD, iPrONBD, nBuONBD, iBuONBD, and octylONBD.

HSP90 [3] = experiment: SDS-PAGE fluorescence detection of denatured HSP90 in HeLa cell lysate, with or without geldanamycin; assay type: binding; settings: probe 1 mM, geldanamycin 50 μM, each temperature for 5 minutes, pellet fraction; FIG. 16
Method: HeLa cells were scraped with a scraper and washed three times with ice-cold PBS, and a protease inhibitor cocktail (Nacalai, 25955-24) was resuspended in ice-cold M-PER buffer (Thermo Fisher Scientific, 78503) and allowed to stand on ice for 10 minutes. After centrifugation at 20,000×g for 20 minutes at 4° C., the supernatant was separated from the cell lysate. The protein concentration was determined by using the BCA method. To the supernatant (2 mg/ml), the same amount of geldanamycin (TCI, […]; final concentration: 50 μM) and DMSO were added, followed by treatment at room temperature for 10 minutes. […] A stock solution (DMSO solution) of 100 mM ONBD was added to the sample to a final concentration of 1 mM and allowed to stand at 37° C. for 30 minutes, and the solution was then transferred to a PCR tube. The PCR tube was heated using a thermal cycler (MiniAmp Plus) at each temperature for 5 minutes and then allowed to stand at room temperature. The sample was centrifuged at 20,000×g for 15 minutes at 4° C. In 1D SDS-PAGE (Bio-Rad, 4-10% acrylamide gel) of the pellet fraction, SDS-PAGE was performed while mixing with 1×SDS sample buffer and heating for 5 minutes at 95° C. Using various probes, SDS-PAGE was performed in the same manner as in Example 17 under heating conditions of 45° C. for 5 minutes (FIG. 17). […]

HSP90 [4] = experiment: Two-dimensional electrophoresis of probe-labelled HeLa lysate, denatured HSP90 with or without geldanamycin; assay type: binding; settings: probe 1 mM, geldanamycin 50 μM, 45° C. for 5 minutes, total protein; FIG. 18
Method: HeLa cells were scraped with a scraper and washed three times with ice-cold PBS, and a protease inhibitor cocktail (Nacalai, 25955-24) was resuspended in ice-cold M-PER buffer (Thermo Fisher Scientific, 78503) and allowed to stand on ice for 10 minutes. After centrifugation at 20,000×g for 20 minutes at 4° C., the supernatant was separated from the cell lysate. The protein concentration was determined by using the BCA method. To the supernatant (2 mg/ml), the same amount of geldanamycin (TCI, […]; final concentration: 50 μM) and DMSO were added, followed by treatment at room temperature for 10 minutes. […] A stock solution (DMSO solution) of 100 mM iPrONBD was added to the sample to a final concentration of 1 mM and allowed to stand at 37° C. for 30 minutes, and the solution was then transferred to a PCR tube. The PCR tube was heated using a thermal cycler (MiniAmp Plus) at 45° C. for 5 minutes and then allowed to stand at room temperature. A sample was prepared according to the protocol of the ReadyPrep 2-D cleanup kit (Bio-Rad), and the final pellets obtained were dissolved in 15 μL of swelling buffer (containing ampolyte, pH: 3-10) included with the Auto2D Glycine Type Reagent Kit, followed by two-dimensional electrophoresis (FIG. 18).

T1 sequence (P00921 whole entry): as above

O=[N+]([O-])c1ccc(Br)c2nonc12 [Br-NBD]
suitability as probe under the denaturation conditions ([1]; 65° C., 5 minutes): appropriate probe
reduction in the fluorescence intensity of CA by brinzolamide, comparison of probes ([1]; iPrONBD versus BrNDB, FIG. 15): the reduction in the fluorescence intensity of CA was more significant

CCCCCCCCOc1ccc([N+](=O)[O-])c2nonc12 [octylONBD]
increase in fluorescence intensity over time in the presence of α-synuclein fibril (α-Synuclein fibril): the increase in the fluorescence intensity was significant

CC(C)Oc1ccc([N+](=O)[O-])c2nonc12 [iPrONBD]
increase in the fluorescence intensity on heating [2]: the increase in the fluorescence intensity was significant
visualization of ligand-induced heat denaturation resistance of HSP90 by probe fluorescence (HSP90 [3]): it was possible to visualize the acquisition of target heat denaturation resistance by ligand addition
visualization of ligand-induced change in heat denaturation resistance of HSP90 by probe fluorescence (HSP90 [4]): it was possible to visualize changes in the heat denaturation resistance of the target HSP90 by ligand addition
